Source: ChEMBL document CHEMBL6092199, “Naphthalen-1-ylethanamine-containing small molecule inhibitors of the papain-like protease of SARS-CoV-2” (Eur J Med Chem, 2024)
The source made the active and inactive calls. The rule behind the calls is not given here.

Columns and labels:
[1] = tested on: SARS-CoV-2; test: Antiviral activity against SARS-CoV-2 JPN/TY/WK-521 infected in Vero E6 cells assessed as reduction in viral RNA level incubated for 3 days by RT-qPCR analysis; format: functional, organism-based; conditions: Severe acute respiratory syndrome coronavirus 2, JPN/TY/WK-521, Vero C1008, 72 h
[2] = Cytotoxicity against african green monkey Vero E6 cells incubated for 3 days by CCK8 assay; format: toxicity, cell-based, Vero C1008; conditions: chlorocebus sabaeus, time 3 day
[3] = Inhibition of SARS-CoV-1 PL protease using (Z)-Arg-Leu-Arg-Gly-Gly-4-methyl-coumaryl-7-amide as substrate measured every 150 sec for 1 hr by multimode reader assay; design: species or system Severe acute respiratory syndrome-related coronavirus
[4] = molecular target: T1, Replicase polyprotein 1ab (Severe acute respiratory syndrome coronavirus 2, UniProt P0DTD1); test: Inhibition of SARS-CoV-2 PL protease using (Z)-Arg-Leu-Arg-Gly-Gly-4-methyl-coumaryl-7-amide as substrate and varying concentration of […] by Lineweaver-burk plot analysis
[5] = Inhibition of SARS-CoV-1 PL protease using (Z)-Arg-Leu-Arg-Gly-Gly-4-methyl-coumaryl-7-amide as substrate and varying concentration of […] by Lineweaver-burk plot analysis; design: species or system Severe acute respiratory syndrome-related coronavirus
[6] = molecular target: T1, Replicase polyprotein 1ab; test: Inhibition of SARS-CoV-2 PL protease using varying concentration of (Z)-Arg-Leu-Arg-Gly-Gly-4-methyl-coumaryl-7-amide as substrate by Dixon plot analysis
[7] = Inhibition of SARS-CoV-1 PL protease using varying concentration of (Z)-Arg-Leu-Arg-Gly-Gly-4-methyl-coumaryl-7-amide as substrate by Dixon plot analysis; design: species or system Severe acute respiratory syndrome-related coronavirus
[8] = tested on: SARS-CoV-2; test: Antiviral activity against SARS-CoV-2 JPN/TY/WK-521 infected in Vero E6 cells assessed as reduction in cytopathic effect at 1 to 100 uM pretreated with virus for 1 hr followed by viral washout and compound exposure for 3 days by immunocytochemistry analysis; format: functional, organism-based; conditions: Severe acute respiratory syndrome coronavirus 2, dose 1-100 µM, time 3.0 day
[9] = molecular target: T1, Replicase polyprotein 1ab; test: Inhibition of SARS-CoV-2 PL protease using (Z)-Arg-Leu-Arg-Gly-Gly-4-methyl-coumaryl-7-amide as substrate measured every 150 sec for 1 hr by multimode reader assay

SMILES | EC50 [1] | CC50 at 72 h [2] | also measured
Cc1ccccc1C(=O)NCc1ccc(C)c(C(=O)N[C@H](C)c2cccc3ccccc23)c1 | 15.1 µM | > 100 µM | –
Cc1ccc(CNC(=O)c2cccc(F)c2F)cc1C(=O)N[C@H](C)c1cccc2ccccc12 | 52.3 µM | > 100 µM | –
Cc1ccc(CNC(=O)C(F)(F)F)cc1C(=O)N[C@H](C)c1cccc2ccccc12 | 30.3 µM | > 100 µM | –
CNCc1ccc(C)c(C(=O)N[C@H](C)c2cccc3ccccc23)c1 | 25.2 µM | > 100 µM | –
Cc1ccc(CN)cc1C(=O)N[C@H](C)c1cccc2cc3ccccc3cc12 | 27.3 µM | 40.5 µM | –
Cc1ccc(CNC(=O)c2ccc(F)cc2F)cc1C(=O)N[C@H](C)c1cccc2ccccc12 | > 100 µM | > 100 µM | –
Cc1ccc(CNC(=O)c2ccccc2)cc1C(=O)N[C@H](C)c1cccc2ccccc12 | 35.4 µM | > 100 µM | –
Cc1ccc(CNC(=O)c2ccc(F)cc2)cc1C(=O)N[C@H](C)c1cccc2ccccc12 | 25.7 µM | > 100 µM | –
Cc1ccc(CNC(=O)c2ccc(C(F)(F)F)c(F)c2)cc1C(=O)N[C@H](C)c1cccc2ccccc12 | > 100 µM | > 100 µM | –
Cc1ccc(C(=O)NCc2ccc(C)c(C(=O)N[C@H](C)c3cccc4ccccc34)c2)cc1 | > 100 µM | > 100 µM | –
Cc1cccc(C(=O)NCc2ccc(C)c(C(=O)N[C@H](C)c3cccc4ccccc34)c2)c1 | 44 µM | > 100 µM | –
Cc1ccc(CNC(=O)c2ccccc2C(F)(F)F)cc1C(=O)N[C@H](C)c1cccc2ccccc12 | 27.4 µM | > 100 µM | –
Cc1ccc(CNC(=O)C(N)=O)cc1C(=O)N[C@H](C)c1cccc2ccccc12 | > 100 µM | > 100 µM | –
Cc1ccc(CNC(=O)c2ccc(F)c(F)c2)cc1C(=O)N[C@H](C)c1cccc2ccccc12 | 3.8 µM | > 100 µM | IC50 [3]: 0.3 µM; Ki [4]: 5.6 µM; Ki [5]: 0.16 µM; Ki [6]: 5.3 µM; Ki [7]: 0.28 µM; Activity [8]: Active
CCOC(=O)C(=O)NCc1ccc(C)c(C(=O)N[C@H](C)c2cccc3ccccc23)c1 | > 100 µM | > 100 µM | –
Cc1ccc(CNC(=O)c2ccc([N+](=O)[O-])cc2)cc1C(=O)N[C@H](C)c1cccc2ccccc12 | 40.3 µM | > 100 µM | –
Cc1ccc(CN)cc1C(=O)N[C@H](C)c1cccc2ccccc12 | 15.5 µM | > 100 µM | –
Cc1ccc(CNC(=O)c2cccc(C(F)(F)F)c2)cc1C(=O)N[C@H](C)c1cccc2ccccc12 | 15.7 µM | > 100 µM | –
Cc1ccc(CNC(=O)c2cccc(C(F)(F)F)c2F)cc1C(=O)N[C@H](C)c1cccc2ccccc12 | 29.1 µM | > 100 µM | –
Cc1ccc(CNC(=O)c2ccc(F)cc2C(F)(F)F)cc1C(=O)N[C@H](C)c1cccc2ccccc12 | > 100 µM | > 100 µM | –

SMILES | EC50 [1] | CC50 at 72 h [2] | also measured
Cc1ccc(CNC(=O)C(C(F)(F)F)C(F)(F)F)cc1C(=O)N[C@H](C)c1cccc2ccccc12 | > 100 µM | > 100 µM | –
Cc1ccc(CNC(=O)c2c(F)c(F)cc(F)c2F)cc1C(=O)N[C@H](C)c1cccc2ccccc12 | 44.8 µM | > 100 µM | –
Cc1ccc(CNC(=O)OC(C)(C)C)cc1C(=O)N[C@H](C)c1cccc2cc3ccccc3cc12 | > 100 µM | > 100 µM | –
Cc1ccc(CNC(=O)c2ccc(F)c(F)c2)cc1C(=O)N[C@H](C)c1cccc2cc3ccccc3cc12 | > 100 µM | > 100 µM | –
Cc1ccc(CNC(=O)c2cc(C(F)(F)F)cc(C(F)(F)F)c2)cc1C(=O)N[C@H](C)c1cccc2ccccc12 | 72.8 µM | > 100 µM | –
Cc1ccc(CNC(=O)c2ccccc2F)cc1C(=O)N[C@H](C)c1cccc2ccccc12 | 13.2 µM | > 100 µM | –
Cc1ccc(CNC(=O)c2ccc(C(F)(F)F)cc2F)cc1C(=O)N[C@H](C)c1cccc2ccccc12 | > 100 µM | > 100 µM | –
Cc1ccc(CNC(=O)c2cccc(C(F)(F)F)c2C)cc1C(=O)N[C@H](C)c1cccc2ccccc12 | > 100 µM | > 100 µM | –
Cc1ccc(CNC(=O)c2cc(F)c(F)cc2F)cc1C(=O)N[C@H](C)c1cccc2ccccc12 | > 100 µM | > 100 µM | –
Cc1ccc(N)cc1C(=O)N[C@H](C)c1cccc2ccccc12 | 24.7 µM | > 100 µM | IC50 [3]: 0.05 µM; Ki [5]: 0.12 µM; Ki [7]: 0.29 µM
Cc1ccc(CNC(=O)C(=O)O)cc1C(=O)N[C@H](C)c1cccc2cc3ccccc3cc12 | > 100 µM | > 100 µM | –
Cc1ccc(CNC(=O)CC(F)(F)F)cc1C(=O)N[C@H](C)c1cccc2ccccc12 | 40.7 µM | > 100 µM | –
Cc1ccc(CNC(=O)c2ccc(C(F)(F)F)cc2)cc1C(=O)N[C@H](C)c1cccc2ccccc12 | 18.7 µM | > 100 µM | –
CC(=O)NCc1ccc(C)c(C(=O)N[C@H](C)c2cccc3ccccc23)c1 | > 100 µM | > 100 µM | –
Cc1ccc(CNC(=O)c2ccccc2[N+](=O)[O-])cc1C(=O)N[C@H](C)c1cccc2ccccc12 | 18.3 µM | 55.6 µM | –
Cc1ccc(CNC(=O)c2c(F)cc(F)cc2F)cc1C(=O)N[C@H](C)c1cccc2ccccc12 | > 100 µM | > 100 µM | –
Cc1ccc(CNC(=O)c2ccc(C(C)(C)C)cc2)cc1C(=O)N[C@H](C)c1cccc2ccccc12 | 7.3 µM | 58.2 µM | IC50 [9]: 3.1 µM; IC50 [3]: 0.47 µM; Ki [4]: 4.1 µM; Ki [5]: 0.32 µM; Ki [6]: 4.6 µM; Ki [7]: 0.54 µM
Cc1ccc(CNC(=O)c2cccc(F)c2)cc1C(=O)N[C@H](C)c1cccc2ccccc12 | 57.4 µM | > 100 µM | –
Cc1ccc(CNC(=O)c2ccc([N+](=O)[O-])c(F)c2)cc1C(=O)N[C@H](C)c1cccc2ccccc12 | 76.9 µM | > 100 µM | –
Cc1ccc(CNC(=O)C(=O)O)cc1C(=O)N[C@H](C)c1cccc2ccccc12 | 2.7 µM | > 100 µM | IC50 [9]: 5.9 µM; IC50 [3]: 0.46 µM; Ki [4]: 4.4 µM; Ki [5]: 0.12 µM; Ki [6]: 4.6 µM; Ki [7]: 0.18 µM; Activity [8]: Active
